Measurements taken from patent US8168656B2, “Indoleacetic acid and indenacetic acid derivatives as therapeutic agents with reduced gastrointestinal toxicity” (Vanderbilt University, priority 2009, dated 2012).
Changes are numbered by the printed parent chain.

Columns and labels:
wild type mCOX-2 = target: T1, wild type mCOX-2 (Mus musculus, UniProt Q05769); test: Activity recovery assay (reversibility of COX inhibition); type: biochemical, murine; settings: 10 μM inhibitor, 50 μM AA
T1 construct: made in house; host or cells: Sf9 insect cells (baculovirus, pVL1393)
T1 sequence (Q05769 18-604): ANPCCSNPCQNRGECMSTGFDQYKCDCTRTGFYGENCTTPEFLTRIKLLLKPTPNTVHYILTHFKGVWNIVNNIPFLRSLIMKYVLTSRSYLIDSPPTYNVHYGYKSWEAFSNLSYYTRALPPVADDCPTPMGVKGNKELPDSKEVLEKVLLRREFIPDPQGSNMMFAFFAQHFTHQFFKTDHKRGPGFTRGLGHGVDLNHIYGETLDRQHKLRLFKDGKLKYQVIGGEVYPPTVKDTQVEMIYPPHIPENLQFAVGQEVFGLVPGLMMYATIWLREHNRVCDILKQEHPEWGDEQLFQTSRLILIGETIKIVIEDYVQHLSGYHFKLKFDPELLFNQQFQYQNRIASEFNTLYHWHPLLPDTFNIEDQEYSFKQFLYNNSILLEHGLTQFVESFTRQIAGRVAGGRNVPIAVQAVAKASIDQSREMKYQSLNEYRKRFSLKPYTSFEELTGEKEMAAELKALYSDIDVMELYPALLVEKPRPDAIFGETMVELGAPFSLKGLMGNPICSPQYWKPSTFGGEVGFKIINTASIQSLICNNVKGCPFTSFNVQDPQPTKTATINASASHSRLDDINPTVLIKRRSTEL
Experimental: (§1) The reversibility of the second step in equation (1) could be directly evaluated by the amount of enzyme activity recovered after a prolonged incubation time with substrate. […] The enzymes were pre-incubated for 20 minutes with DMSO or 10 μM INDO, prior to the addition of 50 μM AA. After addition of AA, the oxygenation reactions were allowed to proceed for varying lengths of time. As the reaction time increased, the extent of inhibition decreased if INDO binding was reversible. The time course for recovery of AA oxygenation was fit to a single exponential (FIG. 3A).
(§2) The reversibility of DM-INDO inhibition was evaluated similarly to INDO using the activity recovery assay (FIG. 3). The experiments and analysis were performed as described above.

mCOX-2^V349I = target: T2, mCOX-2^V349I (Mus musculus, UniProt Q05769, V335I); test: as above; type: biochemical, murine; settings: 10 μM inhibitor, 50 μM AA
T2 construct: made in house; host or cells: Sf9 insect cells (baculovirus, pVL1393)
T2 sequence (Q05769 18-604 V335I): T1 sequence (Q05769 18-604) with V318I
Experimental: as §1, §2

SMILES: COc1ccc2c(c1)c(CC(=O)O)cn2C(=O)c1ccc(Cl)cc1 [DM-INDO, 2-Des-methylindomethacin]
- K−2^b (rate constant determined by reversible inhibition) (wild type mCOX-2): 0.023 ± 0.001 s⁻¹
- K−2^b (rate constant determined by reversible inhibition) (mCOX-2^V349I): 0.015 ± 0.005 s⁻¹
